Source: PubChem BioAssay AID248 (DTP/NCI, 2004)
Inconclusive results and toxic doses are left out.

Test system: L1210 leukemia ip in BDF1 mice, survival T/C
Assay: NCI In Vivo Anticancer Drug Screen. Data for tumor model L1210 Leukemia (intraperitoneal) in B6D2F1 (BDF1) mice
Conditions: endpoint: mean survival time, higher = longer survival
Outline: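 Tumor was transplanted into mice, which were then dosed with test compound or vehicle alone. Survival was recorded for each group, and the treated figure was expressed relative to the control figure.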

[1] = dose: 100.0 mg/kg/injection, schedule: Q01DX009 (ip), vehicle: Klucel (hydroxypropylcellulose) (HPC)
[2] = dose: 200.0 mg/kg/injection, schedule: Q01DX009 (ip), vehicle: Klucel (hydroxypropylcellulose) (HPC)
[3] = dose: 100.0 mg/kg/injection, schedule: Q01DX001 (ip), vehicle: Klucel (hydroxypropylcellulose) (HPC)
[4] = dose: 100.0 mg/kg/injection, schedule: Q04DX003 (ip), vehicle: Klucel (hydroxypropylcellulose) (HPC)
[5] = dose: 200.0 mg/kg/injection, schedule: Q01DX001 (ip), vehicle: Klucel (hydroxypropylcellulose) (HPC)
[6] = dose: 200.0 mg/kg/injection, schedule: Q04DX003 (ip), vehicle: Klucel (hydroxypropylcellulose) (HPC)
[7] = dose: 400.0 mg/kg/injection, schedule: Q04DX003 (ip), vehicle: Klucel (hydroxypropylcellulose) (HPC)
[8] = dose: 100.0 mg/kg/injection, schedule: Q01DX001 (ip), vehicle: saline
[9] = dose: 200.0 mg/kg/injection, schedule: Q01DX001 (ip), vehicle: saline
[10] = dose: 400.0 mg/kg/injection, schedule: Q01DX001 (ip), vehicle: saline
[11] = dose: 100.0 mg/kg/injection, schedule: Q04DX003 (ip), vehicle: saline with Tween-80
[12] = dose: 200.0 mg/kg/injection, schedule: Q04DX003 (ip), vehicle: saline with Tween-80
[13] = dose: 100.0 mg/kg/injection, schedule: Q04DX003 (ip), vehicle: saline
[14] = dose: 50.0 mg/kg/injection, schedule: Q01DX001 (ip), vehicle: saline
[15] = dose: 200.0 mg/kg/injection, schedule: Q04DX003 (ip), vehicle: saline
[16] = dose: 400.0 mg/kg/injection, schedule: Q04DX003 (ip), vehicle: saline
[17] = dose: 100.0 mg/kg/injection, schedule: Q01DX009 (ip), vehicle: saline with Tween-80

SMILES: O=C(/C=C/c1ccccc1)N/N=C/c1cccs1
- T/C [1]: 86 % of control
- T/C [2]: 88 % of control

SMILES: COc1cc(C(=O)O)ccc1OCCNS(C)(=O)=O
- T/C [3]: 96 % of control
- T/C [4]: 105 % of control
- T/C [5]: 102 % of control
- T/C [6]: 96 % of control
- T/C (dose: 400.0 mg/kg/injection, schedule: Q01DX001 (ip), vehicle: Klucel (hydroxypropylcellulose) (HPC)): 100 % of control
- T/C [7]: 94 % of control

SMILES: COc1cc2c(cc1OC)-c1c([O-])c3cc(OC)c(OC)cc3n[n+]1CC2
- T/C (dose: 75.0 mg/kg/injection, schedule: Q01DX001 (ip), vehicle: saline): 98 % of control
- T/C (dose: 150.0 mg/kg/injection, schedule: Q01DX001 (ip), vehicle: saline): 86 % of control
- T/C (dose: 300.0 mg/kg/injection, schedule: Q01DX001 (ip), vehicle: saline): 89 % of control

SMILES: CCCN1CCN(CCO)CC1C (stereo not drawn)
- T/C [8]: 98 % of control
- T/C [9]: 101 % of control
- T/C [10]: 98 % of control

SMILES: Cc1cc(N=C2C=C(Br)C(=O)C(Br)=C2)cc(CN(CC(=O)O)CC(=O)O)c1O
- T/C [8]: 105 % of control
- T/C [9]: 111 % of control
- T/C [10]: 100 % of control

SMILES: Cc1c2cnccc2c(C)c2c1c1ccccc1n2CCNCc1ccccc1
- T/C (dose: 50.0 mg/kg/injection, schedule: Q04DX003 (ip), vehicle: saline with Tween-80): 87 % of control
- T/C [11]: 94 % of control
- T/C [12]: 103 % of control

SMILES: Nc1nc(N)c2nc(CN3CCCc4cc(C(=O)NC(CCC(=O)O)C(=O)O)ccc43)cnc2n1 (stereo not drawn)
- T/C [13]: 207 % of control

SMILES: COC(=O)CC(C)=S.[Ni]
- T/C [14]: 98 % of control
- T/C [8]: 98 % of control
- T/C [9]: 98 % of control
- T/C [10]: 117 % of control

SMILES: O=C1c2nc3ccccc3cc2CN1Cc1ccccc1
- T/C (dose: 10.0 mg/kg/injection, schedule: Q04DX003 (ip), vehicle: alcohol): 97 % of control
- T/C (dose: 20.0 mg/kg/injection, schedule: Q04DX003 (ip), vehicle: alcohol): 96 % of control
- T/C (dose: 40.0 mg/kg/injection, schedule: Q04DX003 (ip), vehicle: alcohol): 96 % of control
- T/C (dose: 80.0 mg/kg/injection, schedule: Q04DX003 (ip), vehicle: alcohol): 97 % of control
- T/C (dose: 160.0 mg/kg/injection, schedule: Q04DX003 (ip), vehicle: alcohol): 92 % of control

SMILES: COc1cc2ccc(C(C)NCC(=O)O)cc2cc1OC (stereo not drawn)
- T/C [1]: 100 % of control
- T/C [4]: 93 % of control
- T/C [2]: 100 % of control
- T/C [6]: 90 % of control
- T/C (dose: 400.0 mg/kg/injection, schedule: Q01DX009 (ip), vehicle: Klucel (hydroxypropylcellulose) (HPC)): 94 % of control
- T/C [7]: 90 % of control

SMILES: Cc1c([N+](=O)[O-])cc(NC(=O)/C=C\C(=O)O)cc1[N+](=O)[O-]
- T/C [11]: 113 % of control
- T/C [12]: 113 % of control
- T/C (dose: 400.0 mg/kg/injection, schedule: Q04DX003 (ip), vehicle: saline with Tween-80): 109 % of control

SMILES: C=C1C(=O)OC2/C=C(\C)C(O)C/C=C(/C)CCC12 (stereo not drawn)
- T/C (dose: 25.0 mg/kg/injection, schedule: Q04DX003 (ip), vehicle: Klucel (hydroxypropylcellulose) (HPC)): 96 % of control
- T/C (dose: 50.0 mg/kg/injection, schedule: Q04DX003 (ip), vehicle: Klucel (hydroxypropylcellulose) (HPC)): 102 % of control
- T/C [4]: 100 % of control

SMILES: COc1ccc(-n2c(=O)c(N=Nc3ccc(Br)cc3)c(O)n(-c3ccccc3OC)c2=S)cc1
- T/C (dose: 50.0 mg/kg/injection, schedule: Q01DX001 (ip), vehicle: Klucel (hydroxypropylcellulose) (HPC)): 106 % of control
- T/C [3]: 103 % of control
- T/C [5]: 103 % of control

SMILES: COc1ccc(Nc2ccnc3cc(Cl)ccc23)cc1CN(CCCl)C(C)CCl (stereo not drawn)
- T/C (dose: 25.0 mg/kg/injection, schedule: Q01DX001 (ip), vehicle: carboxymethylcellulose (CMC)): 113 % of control
- T/C (dose: 50.0 mg/kg/injection, schedule: Q01DX001 (ip), vehicle: carboxymethylcellulose (CMC)): 107 % of control
- T/C (dose: 100.0 mg/kg/injection, schedule: Q01DX001 (ip), vehicle: carboxymethylcellulose (CMC)): 103 % of control

SMILES: O/N=C1/CCCCc2ccccc21
- T/C [8]: 105 % of control
- T/C [9]: 110 % of control
- T/C [10]: 96 % of control

SMILES: Cc1c(NC(=O)Nc2ccc(C3=NCCN3)cc2)cccc1NC(=O)Nc1ccc(C2=NCCN2)cc1
- T/C (dose: 0.62 mg/kg/injection, schedule: Q01DX Z (ip), vehicle: carboxymethylcellulose (CMC)): 92 % of control
- T/C (dose: 1.25 mg/kg/injection, schedule: Q01DX Z (ip), vehicle: carboxymethylcellulose (CMC)): 98 % of control
- T/C (dose: 2.5 mg/kg/injection, schedule: Q01DX Z (ip), vehicle: carboxymethylcellulose (CMC)): 102 % of control
- T/C (dose: 8.5 mg/kg/injection, schedule: Q01DX Z (oral), vehicle: carboxymethylcellulose (CMC)): 109 % of control
- T/C (dose: 9.0 mg/kg/injection, schedule: Q01DX Z (ip), vehicle: water): 205 % of control
- T/C (dose: 13.5 mg/kg/injection, schedule: Q01DX Z (oral), vehicle: carboxymethylcellulose (CMC)): 121 % of control
- T/C (dose: 18.0 mg/kg/injection, schedule: Q01DX Z (ip), vehicle: water): 160 % of control
- T/C (dose: 20.0 mg/kg/injection, schedule: Q01DX Z (oral), vehicle: carboxymethylcellulose (CMC)): 111 % of control
- T/C (dose: 30.0 mg/kg/injection, schedule: Q01DX Z (oral), vehicle: carboxymethylcellulose (CMC)): 109 % of control
- T/C (dose: 36.0 mg/kg/injection, schedule: Q01DX Z (ip), vehicle: water): 111 % of control
- T/C (dose: 45.0 mg/kg/injection, schedule: Q01DX Z (oral), vehicle: carboxymethylcellulose (CMC)): 114 % of control
- T/C (dose: 62.0 mg/kg/injection, schedule: Q01DX Z (ip), vehicle: saline): 124 % of control
- T/C (dose: 125.0 mg/kg/injection, schedule: Q01DX Z (ip), vehicle: saline): 96 % of control

SMILES: [O-][N+](CCO)(CCO)Cc1ccccc1
- T/C [14]: 103 % of control
- T/C [8]: 103 % of control
- T/C [9]: 103 % of control
- T/C [10]: 101 % of control

SMILES: C[Se]c1ncnc2c1ccn2C1OC(CO)C(O)C1O (stereo not drawn)
- T/C (dose: 12.5 mg/kg/injection, schedule: Q01DX005 (ip), vehicle: saline): 104 % of control
- T/C (dose: 25.0 mg/kg/injection, schedule: Q01DX005 (ip), vehicle: saline): 106 % of control
- T/C (dose: 50.0 mg/kg/injection, schedule: Q01DX005 (ip), vehicle: saline): 102 % of control

SMILES: CCOC(=O)c1c2c(=O)n(C)c(=O)n(C)c2nc2c1c(=O)n(C)c(=O)n2C
- T/C (dose: 50.0 mg/kg/injection, schedule: Q01DX009 (ip), vehicle: Klucel (hydroxypropylcellulose) (HPC)): 93 % of control
- T/C [1]: 93 % of control
- T/C [2]: 86 % of control

SMILES: COc1cc2cc(-c3cc(OC)c(OC)c(OC)c3)c3c(c2cc1OC)CNC3=O
- T/C (dose: 100.0 mg/kg/injection, schedule: Q01DX009 (ip), vehicle: saline): 90 % of control
- T/C [13]: 93 % of control
- T/C (dose: 200.0 mg/kg/injection, schedule: Q01DX009 (ip), vehicle: saline): 90 % of control
- T/C [15]: 101 % of control
- T/C [16]: 101 % of control

SMILES: COc1ccc2[nH]c(-c3ccccc3)cc2c1
- T/C (dose: 25.0 mg/kg/injection, schedule: Q01DX009 (ip), vehicle: saline with Tween-80): 100 % of control
- T/C (dose: 50.0 mg/kg/injection, schedule: Q01DX009 (ip), vehicle: saline with Tween-80): 108 % of control
- T/C [17]: 101 % of control

SMILES: O=C(O)c1ccc(NC(=S)Nc2ccc(C(=O)O)cc2)cc1
- T/C [17]: 93 % of control
- T/C [13]: 94 % of control
- T/C (dose: 200.0 mg/kg/injection, schedule: Q01DX009 (ip), vehicle: saline with Tween-80): 112 % of control
- T/C [15]: 100 % of control
- T/C (dose: 400.0 mg/kg/injection, schedule: Q01DX009 (ip), vehicle: saline with Tween-80): 93 % of control
- T/C [16]: 104 % of control

SMILES: CCCCCC/C(C)=N/Nc1ccc([N+](=O)[O-])cc1[N+](=O)[O-]
- T/C [8]: 93 % of control
- T/C [9]: 102 % of control
- T/C [10]: 100 % of control

SMILES: N#Cc1ncc(C(Cl)Cl)nc1Cl
- T/C [13]: 101 % of control
- T/C [15]: 92 % of control

SMILES: Cc1ccc2nc(C)cc(NC(=O)c3ccccc3)c2c1
- T/C (dose: 5.0 mg/kg/injection, schedule: Q01DX001 (ip), vehicle: saline): 110 % of control
- T/C (dose: 10.0 mg/kg/injection, schedule: Q01DX001 (ip), vehicle: saline): 95 % of control
- T/C (dose: 20.0 mg/kg/injection, schedule: Q01DX001 (ip), vehicle: saline): 100 % of control
- T/C (dose: 40.0 mg/kg/injection, schedule: Q01DX001 (ip), vehicle: saline): 105 % of control
- T/C (dose: 80.0 mg/kg/injection, schedule: Q01DX001 (ip), vehicle: saline): 106 % of control
